Assay results published in patent publication US11242346B2, “Mechanistic target of rapamycin signaling pathway inhibitors and therapeutic applications thereof” (SUZHOU KINTOR PHARMACEUTICALS, INC., priority 2016, dated 2022).

Key:
[1] = target: mTOR (FRAP1) (Homo sapiens, UniProt P42345); assay: SelectScreen Profiling, Z'-LYTE kinase assay, mTOR (FRAP1); assay type: biochemical; details: 0.1 μM compound, ATP at Km, read-out: mTOR inh% @0.1 μM
Description: (§1) Some of the example compounds were submitted to Life Technologies Corporation SelectScreen® Profiling Service to test their potency in inhibiting the kinase catalytic activities of mTOR, PI3Kα, VEGF2, FGFR1, HER1 (EGFR) and HER2. A concentration of ATP at the Km of the corresponding kinase was used for all assays. The mTOR (FRAP1), VEGF2, FGFR1, HER1 (EGFR) and HER2 assays used Z′-LYTE® technology. The PI3Kα assay used Adapta® technology. The symbol “inh %” as used herein generally refers to inhibition percentage.

[2] = target: PI3Kα (Homo sapiens, UniProt P42336); assay: SelectScreen Profiling, Adapta kinase assay, PI3Kα; assay type: biochemical; details: 0.1 μM compound, ATP at Km, read-out: PI3Kα inh % @0.1 μM
[3] = tested on: mammalian tumor cell lines such as PC-3, LNCAP, U87, Huh-7, HepG2 and MDA-MB-468; assay: Cell proliferation/survival MTT assay in tumor cell lines; assay type: cell-based; details: 5 days (120 h) culture; cell line not specified; read-out: IC50, inhibition of tumor cell growth (MTT)
Description: The cytotoxic or cytostatic activity of Formula I-III exemplary compounds was measured by establishing proliferating mammalian tumor cell lines such as PC-3, LNCAP, U87, Huh-7, HepG2 and MDA-MB-468 in a cell culture medium, adding a test compound, culturing the cells for a period of 5 days by measuring cell viability via MTT assays. Dose response data were obtained for each test compound and the degree of inhibition of tumor cell growth was expressed as an IC50 value. […] For example. For example, compounds of example 14, 15, 46,29, 45, 49, 122, 88, 54, 55, 58, 59, 63, 64, 66, 67, 68, 113, 86, 90.
PC-3 (or U87) cells were seeded in 96-well plates at low density (at 2,000 cells per well) in media supplemented with 10% FBS (growth media) and transferred to serum-free media (1% FBS) after 24 h. Designated concentrations of drug were added to each well. The cells were incubated for 120 h. At the end of drug exposure, 20 μL/well of MTT solution was added. After 4 h at 37° C. in a humidified 5% CO2 atmosphere, the absorbance at 490 nm was recorded by using a microplate reader. IC50 was calculated using GraphPad Prism version 5 for Windows. The curves were fit using a nonlinear regression model with a log (inhibitor) versus response formula.

[4] = Metabolic stability in human liver microsome (HLM); assay type: in vitro ADME; details: incubation with human liver microsome for 60 min
Description: (§2) Active mTOR inhibitors in enzymatic and/or cell-based assays herein were evaluated for pharmacokinetic properties. Preferable compounds are with pharmacokinetic properties of low clearance, long half-life and/or good oral bioavailability (Fpo). In vitro, selected example compounds were evaluated for metabolic stability by incubating with human liver microsome (HLM) for 60 min. Compounds that were metabolized slower (i.e. higher % remaining) are preferred. […] The more metabolic stable example compounds in the HLM assay were further evaluated for pharmacokinetic properties in vivo. In a representative experiment, selected example compounds were dosed to rats intravenously (IV, 5 mg/kg, 30% PEG400+30% PG+1% DMSO in saline) and orally (PO, 10 mg/kg, 2.4% DMSO+0.1% Tween80 in 0.5% CMC-Na), rat blood samples were taken at designed time points after dosing and analyzed for tested drug concentrations using LC-MS/MS. Pharmacokinetic parameters were derived from the time curve of drug concentrations.

[5] = target: HER1 (EGFR) (Homo sapiens, UniProt P00533); assay: SelectScreen Profiling, Z'-LYTE kinase assay, HER1 (EGFR); assay type: biochemical; details: 1 μM compound, ATP at Km, read-out: HER1 inh % @1 μM
Description: as §1

[6] = target: FGFR1 (Homo sapiens, UniProt P11362); assay: SelectScreen Profiling, Z'-LYTE kinase assay, FGFR1; assay type: biochemical; details: 1 μM compound, ATP at Km, read-out: FGFR 1 inh % @1 μM
Description: as §1

[7] = target: HER2 (Homo sapiens, UniProt P04626); assay: SelectScreen Profiling, Z'-LYTE kinase assay, HER2; assay type: biochemical; details: 1 μM compound, ATP at Km, read-out: HER2 inh % @1 μM
Description: as §1

[8] = target: VEGF2 (Homo sapiens, UniProt P35968); assay: SelectScreen Profiling, Z'-LYTE kinase assay, VEGF2; assay type: biochemical; details: 1 μM compound, ATP at Km, read-out: VEGF 2 inh % @1 μM
Description: as §1

[9] = Rat pharmacokinetic study (IV and PO); assay type: in vivo
Description: as §2

Sequence of HER1 (EGFR) (P00533 25-1210): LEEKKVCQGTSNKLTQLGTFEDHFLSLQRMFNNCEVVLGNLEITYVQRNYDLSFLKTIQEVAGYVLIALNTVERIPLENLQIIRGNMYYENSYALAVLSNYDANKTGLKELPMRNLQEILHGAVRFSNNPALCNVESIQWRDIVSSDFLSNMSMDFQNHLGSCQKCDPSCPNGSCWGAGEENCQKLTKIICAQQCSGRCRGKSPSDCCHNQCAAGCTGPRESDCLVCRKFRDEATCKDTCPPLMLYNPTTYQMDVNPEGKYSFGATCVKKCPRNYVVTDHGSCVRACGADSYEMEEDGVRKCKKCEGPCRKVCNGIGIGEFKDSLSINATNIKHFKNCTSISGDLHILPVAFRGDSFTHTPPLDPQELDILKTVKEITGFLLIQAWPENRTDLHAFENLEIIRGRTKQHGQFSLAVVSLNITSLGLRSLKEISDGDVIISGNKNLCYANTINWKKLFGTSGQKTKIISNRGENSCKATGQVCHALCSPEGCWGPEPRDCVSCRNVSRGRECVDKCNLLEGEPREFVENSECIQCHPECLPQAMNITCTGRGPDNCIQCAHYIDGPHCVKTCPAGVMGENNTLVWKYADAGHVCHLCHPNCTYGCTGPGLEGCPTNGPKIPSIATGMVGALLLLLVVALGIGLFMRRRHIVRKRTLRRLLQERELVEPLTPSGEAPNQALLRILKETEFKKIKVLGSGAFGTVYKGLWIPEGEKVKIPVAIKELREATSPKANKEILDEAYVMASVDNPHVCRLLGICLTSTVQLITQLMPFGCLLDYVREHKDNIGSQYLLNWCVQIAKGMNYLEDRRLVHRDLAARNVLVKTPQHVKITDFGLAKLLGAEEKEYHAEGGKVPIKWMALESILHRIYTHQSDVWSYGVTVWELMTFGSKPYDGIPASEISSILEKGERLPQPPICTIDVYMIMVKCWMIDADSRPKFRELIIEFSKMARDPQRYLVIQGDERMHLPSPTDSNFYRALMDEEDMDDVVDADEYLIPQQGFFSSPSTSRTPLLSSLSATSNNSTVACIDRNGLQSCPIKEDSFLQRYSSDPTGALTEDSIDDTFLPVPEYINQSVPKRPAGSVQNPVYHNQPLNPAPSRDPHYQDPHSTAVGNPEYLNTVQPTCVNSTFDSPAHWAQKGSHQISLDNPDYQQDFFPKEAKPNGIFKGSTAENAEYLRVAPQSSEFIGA
Sequence of HER2 (P04626 23-1255): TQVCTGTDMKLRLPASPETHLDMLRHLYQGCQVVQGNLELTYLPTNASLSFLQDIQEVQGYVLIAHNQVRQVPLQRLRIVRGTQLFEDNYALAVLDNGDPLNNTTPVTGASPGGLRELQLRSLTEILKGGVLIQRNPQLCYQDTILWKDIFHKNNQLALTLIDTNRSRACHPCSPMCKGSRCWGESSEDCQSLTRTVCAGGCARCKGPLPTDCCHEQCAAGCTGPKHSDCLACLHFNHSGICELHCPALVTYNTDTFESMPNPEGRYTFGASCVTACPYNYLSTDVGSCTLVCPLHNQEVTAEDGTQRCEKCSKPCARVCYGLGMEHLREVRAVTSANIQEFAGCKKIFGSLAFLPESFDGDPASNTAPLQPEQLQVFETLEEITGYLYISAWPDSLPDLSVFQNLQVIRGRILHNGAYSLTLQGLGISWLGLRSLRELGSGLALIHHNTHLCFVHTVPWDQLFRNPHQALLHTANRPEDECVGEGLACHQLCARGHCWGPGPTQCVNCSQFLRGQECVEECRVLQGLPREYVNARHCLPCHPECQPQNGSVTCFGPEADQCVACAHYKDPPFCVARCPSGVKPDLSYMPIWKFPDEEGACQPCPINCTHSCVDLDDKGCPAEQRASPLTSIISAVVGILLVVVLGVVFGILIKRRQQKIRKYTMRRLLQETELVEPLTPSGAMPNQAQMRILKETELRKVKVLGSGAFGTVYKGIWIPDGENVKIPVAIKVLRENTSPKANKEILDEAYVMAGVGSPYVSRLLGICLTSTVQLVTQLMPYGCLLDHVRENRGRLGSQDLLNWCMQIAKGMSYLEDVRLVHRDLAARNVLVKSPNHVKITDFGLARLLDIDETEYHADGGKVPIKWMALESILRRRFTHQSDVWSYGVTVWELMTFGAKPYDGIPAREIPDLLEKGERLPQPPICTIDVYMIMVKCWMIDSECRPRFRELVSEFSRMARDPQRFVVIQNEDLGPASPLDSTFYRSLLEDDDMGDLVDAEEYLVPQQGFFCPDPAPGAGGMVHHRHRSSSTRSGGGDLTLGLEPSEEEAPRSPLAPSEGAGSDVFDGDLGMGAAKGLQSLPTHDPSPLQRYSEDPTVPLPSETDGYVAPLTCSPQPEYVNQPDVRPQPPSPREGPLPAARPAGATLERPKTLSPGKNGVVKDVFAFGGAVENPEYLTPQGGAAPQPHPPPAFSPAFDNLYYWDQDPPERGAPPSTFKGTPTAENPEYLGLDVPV
Sequence of VEGF2 (P35968 20-1356): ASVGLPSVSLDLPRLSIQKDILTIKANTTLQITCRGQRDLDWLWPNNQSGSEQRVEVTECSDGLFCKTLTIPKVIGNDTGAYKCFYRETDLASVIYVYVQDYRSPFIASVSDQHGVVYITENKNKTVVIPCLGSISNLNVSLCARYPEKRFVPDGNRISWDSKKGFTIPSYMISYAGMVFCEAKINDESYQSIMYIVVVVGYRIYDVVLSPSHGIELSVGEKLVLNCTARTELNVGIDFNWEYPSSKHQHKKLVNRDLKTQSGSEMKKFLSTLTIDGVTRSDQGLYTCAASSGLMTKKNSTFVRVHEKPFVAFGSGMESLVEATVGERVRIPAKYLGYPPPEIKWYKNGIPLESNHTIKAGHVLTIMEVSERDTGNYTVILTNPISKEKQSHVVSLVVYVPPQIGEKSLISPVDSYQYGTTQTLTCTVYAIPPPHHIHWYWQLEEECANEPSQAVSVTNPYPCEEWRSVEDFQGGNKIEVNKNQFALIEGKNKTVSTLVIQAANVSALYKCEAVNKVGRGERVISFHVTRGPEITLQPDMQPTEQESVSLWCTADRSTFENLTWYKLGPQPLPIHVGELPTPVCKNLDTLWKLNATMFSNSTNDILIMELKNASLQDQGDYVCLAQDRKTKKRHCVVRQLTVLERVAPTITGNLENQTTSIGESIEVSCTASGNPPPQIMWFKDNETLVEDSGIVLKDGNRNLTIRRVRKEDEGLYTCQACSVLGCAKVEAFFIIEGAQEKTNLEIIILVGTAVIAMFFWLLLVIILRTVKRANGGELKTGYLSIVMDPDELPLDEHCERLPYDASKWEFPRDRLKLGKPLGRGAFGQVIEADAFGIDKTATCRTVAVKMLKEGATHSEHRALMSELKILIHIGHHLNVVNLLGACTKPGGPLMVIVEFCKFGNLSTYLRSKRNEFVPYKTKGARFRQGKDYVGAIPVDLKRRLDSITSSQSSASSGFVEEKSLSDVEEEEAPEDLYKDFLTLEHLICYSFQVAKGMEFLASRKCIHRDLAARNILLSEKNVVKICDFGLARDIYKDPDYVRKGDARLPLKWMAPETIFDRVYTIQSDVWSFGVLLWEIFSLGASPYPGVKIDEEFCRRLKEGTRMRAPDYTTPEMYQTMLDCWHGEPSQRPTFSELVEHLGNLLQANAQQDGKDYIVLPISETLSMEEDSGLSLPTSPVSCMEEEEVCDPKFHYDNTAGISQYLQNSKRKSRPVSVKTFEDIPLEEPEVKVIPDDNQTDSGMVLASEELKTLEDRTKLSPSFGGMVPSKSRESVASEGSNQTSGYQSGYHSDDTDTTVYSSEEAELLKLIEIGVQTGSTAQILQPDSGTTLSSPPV
Sequence of FGFR1 (P11362 22-822): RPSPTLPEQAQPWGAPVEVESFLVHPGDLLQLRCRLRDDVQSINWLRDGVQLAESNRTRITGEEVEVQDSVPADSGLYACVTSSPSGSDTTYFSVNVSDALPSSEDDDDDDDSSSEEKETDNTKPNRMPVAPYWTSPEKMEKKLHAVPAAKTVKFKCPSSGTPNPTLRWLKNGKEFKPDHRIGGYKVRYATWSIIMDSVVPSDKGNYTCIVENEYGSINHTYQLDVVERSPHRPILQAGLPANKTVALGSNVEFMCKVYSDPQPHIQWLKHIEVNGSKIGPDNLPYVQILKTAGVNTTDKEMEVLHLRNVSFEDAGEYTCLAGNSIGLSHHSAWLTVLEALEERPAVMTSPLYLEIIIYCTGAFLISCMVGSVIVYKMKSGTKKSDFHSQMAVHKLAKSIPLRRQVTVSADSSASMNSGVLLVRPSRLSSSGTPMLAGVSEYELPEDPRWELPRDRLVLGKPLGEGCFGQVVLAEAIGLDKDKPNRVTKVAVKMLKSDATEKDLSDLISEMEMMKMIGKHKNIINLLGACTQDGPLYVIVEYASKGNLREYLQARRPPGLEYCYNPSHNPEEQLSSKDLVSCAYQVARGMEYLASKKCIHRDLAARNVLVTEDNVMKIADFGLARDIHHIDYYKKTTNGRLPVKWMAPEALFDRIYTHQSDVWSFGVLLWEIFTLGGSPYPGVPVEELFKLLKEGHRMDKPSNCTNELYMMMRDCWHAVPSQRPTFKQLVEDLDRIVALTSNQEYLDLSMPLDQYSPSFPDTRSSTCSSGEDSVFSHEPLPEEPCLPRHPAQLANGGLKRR

SMILES | inhibition at 0.1 µM [1] [%] | metabolic stability in HLM [4] | inhibition at 1 µM [5] [%] | inhibition at 1 µM [6] [%] | inhibition at 1 µM [7] [%] | inhibition at 1 µM [8] [%] | IC50 [3] [nM] | also measured
OCCNC(=S)Nc1ccc(-c2nc(N3CCOCC3)c3cccn3n2)cc1 [Example 113] | – | – | – | – | – | – | < 500 | –
CN(C)C1CCN(C(=O)c2ccc(NC(=O)Nc3ccc(-c4nc(N5CCOCC5)c5ccc(C(F)(F)F)n5n4)cc3)cc2)CC1 [Example 64] | 62 | metabolically stable | – | – | – | – | < 500 | –
C[C@@H]1COCCN1c1nc(-c2ccc(NC(=O)Nc3ccc(C(=O)N4CC[C@@H](O)C4)cc3)cc2)nn2cccc12 [Example 88] | – | – | – | – | – | – | < 500 | –
CN1CCCN(C(=O)c2ccc(NC(=O)Nc3ccc(-c4nc(N5CCOCC5)c5cccn5n4)cc3)cc2)CC1 [Example 59] | 93 | – | 2 | 7 | -2 | 10 | < 500 | –
C[C@@H]1COCCN1c1nc(-c2ccc(NC(=O)Nc3ccc(C(=O)N4CC[C@H](O)C4)cc3)cc2)nn2cccc12 [Example 89] | – | metabolically stable | – | – | – | – | – | –
S=C(Nc1ccc(-c2nc(N3CCOCC3)c3cccn3n2)cc1)Nc1cccnc1 [Example 106] | – | metabolically stable | – | – | – | – | – | CL ([9]; PO 10 mg/kg): 4.12 mL/min/kg; AUC(0-t) ([9]; blood, IV 5 mg/kg): 41500 ng·h/mL; Cmax ([9]; blood, IV 5 mg/kg): 21200 ng/mL; MRT ([9]; blood, IV 5 mg/kg): 1.67 h; clearance ([9]; blood, IV 5 mg/kg): 2.03 mL/min/kg; half-life ([9]; blood, IV 5 mg/kg): 1.42 h; AUC(0-t) ([9]; blood, PO 10 mg/kg): 73400 ng·h/mL; Cmax ([9]; blood, PO 10 mg/kg): 9990 ng/mL; MRT ([9]; blood, PO 10 mg/kg): 5.68 h; Tmax ([9]; blood, PO 10 mg/kg): 2.5 h; half-life ([9]; blood, PO 10 mg/kg): 3.26 h; bioavailability ([9]; blood, PO 10 mg/kg vs IV 5 mg/kg, read-out: Fpo (oral bioavailability)): 89%
O=C(Nc1ccc(C(=O)N2CCC(O)CC2)cc1)Nc1ccc(-c2nc(N3CCOCC3)c3cccn3n2)cc1 [Example 55] | 90 | metabolically stable | 0 | -1 | 5 | 11 | < 500 | –
CN(C)C1CCN(C(=O)c2ccc(NC(=O)Nc3ccc(-c4nc(N5CCOCC5)c5ccc(C(C)(C)O)n5n4)cc3)cc2)CC1 [Example 90] | – | – | – | – | – | – | < 500 | –

Second part, led by results:

inhibition at 0.1 µM [1] [%] | metabolic stability in HLM [4] | inhibition at 1 µM [5] [%] | inhibition at 1 µM [6] [%] | inhibition at 1 µM [7] [%] | inhibition at 1 µM [8] [%] | SMILES | IC50 [3] [nM] | also measured
69 | – | – | – | – | – | O=C(Nc1ccc(C(=O)NCCN2CCOCC2)cc1)Nc1ccc(-c2nc(N3CCOCC3)c3cccn3n2)cc1 [Example 48] | – | inhibition at 0.1 µM [2]: -15%
97 | – | 1 | 4 | -5 | 10 | CN(C)[C@@H]1CCN(C(=O)c2ccc(NC(=O)Nc3ccc(-c4nc(N5CCOCC5)c5cccn5n4)cc3)cc2)C1 [Example 58] | < 500 | –
89 | – | 1 | 6 | -5 | 10 | CN(C)CCCNC(=O)c1ccc(NC(=O)Nc2ccc(-c3nc(N4CCOCC4)c4cccn4n3)cc2)cc1 [Example 47] | – | –
6 | – | – | – | – | – | CS(=O)(=O)N1CCN(Cc2cc3nc(-c4cccc5[nH]ncc45)nc(N4CCOCC4)c3s2)CC1 [GDC0941, reference compound] | – | –
88 | metabolically stable | – | – | – | – | O=C(Nc1ccc(C(=O)N2CCNCC2)cc1)Nc1ccc(-c2nc(N3CCOCC3)c3cccn3n2)cc1 [Example 56] | – | –
98 | – | -2 | 4 | -9 | 10 | CN(C)CCNC(=O)c1ccc(NC(=O)Nc2ccc(-c3nc(N4CCOCC4)c4cccn4n3)cc2)cc1 [Example 45] | < 500 | inhibition at 0.1 µM [2]: 0%
71 | – | – | – | – | – | CNC(=O)c1ccc(NC(=O)Nc2ccc(-c3nc(N4CCOCC4)c4cccn4n3)cc2)cc1F [Example 61] | – | –
53 | – | – | – | – | – | O=C(Nc1ccc(-c2nc(N3CCOCC3)c3ccc(C(F)(F)F)n3n2)cc1)Nc1cccnc1 [Example 62] | – | inhibition at 0.1 µM [2]: 10%
